Test results from publication PMC7450990 (Journal of medicinal chemistry, 2019).

Experiments:
CYP3A4 = CYP3A4 (Homo sapiens, UniProt P08684); test: CYP3A4 inhibition
Metabolic stability = details: human, microsomes
[1] = system: Hh pathway (endogenous Gli1 mRNA levels), ASZ-001 cells; test: cells; details: Mus musculus, ASZ001, 48 h, read-out: IC50 (Hh pathway inhibition, Gli1 mRNA), ASZ-001 cells, 48 h incubation, Mean ± SEM
[2] = Parallel artificial membrane permeability assay; details: hexadecane membrane
[3] = target: T1, Breast Cancer Resistance Protein (BCRP) (Homo sapiens, UniProt Q9UNQ0); test: Efflux pump substrate, BCRP; type: in vitro ADME
T1 sequence (Q9UNQ0 1-655): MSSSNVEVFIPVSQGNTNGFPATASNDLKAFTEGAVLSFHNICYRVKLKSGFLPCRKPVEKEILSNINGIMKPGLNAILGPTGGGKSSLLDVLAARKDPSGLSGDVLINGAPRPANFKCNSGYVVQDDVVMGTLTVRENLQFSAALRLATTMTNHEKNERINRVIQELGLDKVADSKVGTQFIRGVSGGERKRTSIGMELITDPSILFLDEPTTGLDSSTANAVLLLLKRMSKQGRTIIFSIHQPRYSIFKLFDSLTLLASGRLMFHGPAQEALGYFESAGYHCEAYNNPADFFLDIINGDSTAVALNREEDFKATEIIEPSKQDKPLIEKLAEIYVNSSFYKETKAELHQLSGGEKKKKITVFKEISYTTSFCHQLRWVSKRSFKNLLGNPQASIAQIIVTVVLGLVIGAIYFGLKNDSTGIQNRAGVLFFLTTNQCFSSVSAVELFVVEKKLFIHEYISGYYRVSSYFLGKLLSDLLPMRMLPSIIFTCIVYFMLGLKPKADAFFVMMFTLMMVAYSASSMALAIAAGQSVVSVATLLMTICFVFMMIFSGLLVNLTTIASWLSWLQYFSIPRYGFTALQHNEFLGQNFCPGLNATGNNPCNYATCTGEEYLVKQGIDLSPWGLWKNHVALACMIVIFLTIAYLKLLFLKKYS

P-glycoprotein (P-gp) = P-glycoprotein (P-gp) (Homo sapiens, UniProt P08183); test: Efflux pump substrate, P-gp; type: in vitro ADME
[4] = system: Hh pathway (endogenous Gli1 mRNA levels), ASZ-001 cells; details: at the concentrations tested

Chain of CYP3A4 (P08684 whole entry): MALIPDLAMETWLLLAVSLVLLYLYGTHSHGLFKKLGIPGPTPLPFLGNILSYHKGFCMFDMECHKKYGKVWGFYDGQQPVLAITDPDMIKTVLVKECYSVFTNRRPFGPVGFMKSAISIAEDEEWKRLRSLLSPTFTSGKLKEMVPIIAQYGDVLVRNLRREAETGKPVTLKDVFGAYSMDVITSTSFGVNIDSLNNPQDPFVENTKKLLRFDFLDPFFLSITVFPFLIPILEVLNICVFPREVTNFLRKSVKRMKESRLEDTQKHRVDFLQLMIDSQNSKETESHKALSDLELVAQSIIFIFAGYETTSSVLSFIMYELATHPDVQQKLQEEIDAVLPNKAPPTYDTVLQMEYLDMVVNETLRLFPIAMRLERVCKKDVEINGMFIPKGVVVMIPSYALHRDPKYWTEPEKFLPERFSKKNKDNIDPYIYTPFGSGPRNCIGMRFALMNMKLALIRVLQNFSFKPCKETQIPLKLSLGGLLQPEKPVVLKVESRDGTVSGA
Chain of P-glycoprotein (P-gp) (P08183 whole entry): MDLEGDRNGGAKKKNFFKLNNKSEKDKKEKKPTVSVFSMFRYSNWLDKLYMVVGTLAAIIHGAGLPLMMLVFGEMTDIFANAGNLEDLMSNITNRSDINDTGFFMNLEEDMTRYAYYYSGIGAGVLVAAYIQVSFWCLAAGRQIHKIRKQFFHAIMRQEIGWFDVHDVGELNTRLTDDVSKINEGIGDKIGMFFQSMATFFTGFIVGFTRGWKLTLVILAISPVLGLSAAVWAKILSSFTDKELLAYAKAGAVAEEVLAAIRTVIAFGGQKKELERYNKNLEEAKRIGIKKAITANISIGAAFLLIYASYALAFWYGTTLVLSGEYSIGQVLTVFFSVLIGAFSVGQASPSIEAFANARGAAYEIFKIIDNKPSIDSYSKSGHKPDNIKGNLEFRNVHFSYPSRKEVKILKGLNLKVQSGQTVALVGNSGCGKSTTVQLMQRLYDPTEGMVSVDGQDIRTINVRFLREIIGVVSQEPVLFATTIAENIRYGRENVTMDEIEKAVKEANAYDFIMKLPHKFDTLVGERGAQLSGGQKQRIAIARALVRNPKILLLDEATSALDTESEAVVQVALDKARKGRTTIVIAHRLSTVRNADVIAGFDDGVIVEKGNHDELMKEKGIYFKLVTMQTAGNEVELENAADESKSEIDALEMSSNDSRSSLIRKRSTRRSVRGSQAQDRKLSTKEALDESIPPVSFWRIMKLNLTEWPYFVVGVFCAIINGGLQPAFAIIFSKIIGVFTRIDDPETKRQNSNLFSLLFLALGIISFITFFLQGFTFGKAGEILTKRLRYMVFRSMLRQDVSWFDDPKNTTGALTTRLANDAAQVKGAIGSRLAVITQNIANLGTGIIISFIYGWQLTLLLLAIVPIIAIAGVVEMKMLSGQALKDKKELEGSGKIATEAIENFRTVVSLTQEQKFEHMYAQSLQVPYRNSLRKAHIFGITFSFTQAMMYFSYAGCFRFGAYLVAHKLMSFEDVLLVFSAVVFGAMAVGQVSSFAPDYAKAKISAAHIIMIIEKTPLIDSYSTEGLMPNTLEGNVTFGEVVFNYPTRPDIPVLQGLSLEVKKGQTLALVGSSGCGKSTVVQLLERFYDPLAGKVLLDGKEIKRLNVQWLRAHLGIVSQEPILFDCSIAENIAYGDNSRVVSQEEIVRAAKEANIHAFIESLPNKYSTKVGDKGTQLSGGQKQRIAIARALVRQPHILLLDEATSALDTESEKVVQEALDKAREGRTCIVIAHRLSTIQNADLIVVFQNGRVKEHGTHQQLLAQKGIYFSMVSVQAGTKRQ

Structure (SMILES) | IC50 (CYP3A4) [µM] | IC50 [1] [µM] | also measured
C[C@@]1(c2ccc(Cl)cc2Cl)OC[C@@H](COc2ccc(N3CCN(c4ccc(NC(=O)c5cccc(O)c5)cc4)CC3)cc2)O1 [Compound 27, N-(4-(4-(4-(((2R,4R)-2-(2,4-dichlorophenyl)-2-methyl-1,3-dioxolan-4-yl)methoxy)phenyl)piperazin-1-yl)phenyl)-3-hydroxybenzamide] | > 30 | – | microsomal CLint (Metabolic stability): < 3 µL/min/mg
C[C@@]1(c2ccc(Cl)cc2Cl)OC[C@@H](COc2ccc(N3CCN(c4ccc(NC(=O)c5ccncc5)cc4)CC3)cc2)O1 [Compound 14, N-(4-(4-(4-(((2R,4R)-2-(2,4-dichlorophenyl)-2-methyl-1,3-dioxolan-4-yl)methoxy)phenyl)piperazin-1-yl)phenyl)isonicotinamide] | – | > 10 | –
C[C@]1(c2ccc(Cl)cc2Cl)OC[C@@H](COc2ccc(N3CCN(c4ccc(NC(=O)c5ccc6ccccc6c5)cc4)CC3)cc2)O1 [Compound 16, N-(4-(4-(4-(((2S,4R)-2-(2,4-dichlorophenyl)-2-methyl-1,3-dioxolan-4-yl)methoxy)phenyl)piperazin-1-yl)phenyl)-2-naphthamide] | – | > 10 | –
CC[C@@H](C)n1ncn(-c2ccc(N3CCN(c4ccc(OC[C@@H]5CO[C@@](C)(c6ccc(Cl)cc6Cl)O5)cc4)CC3)cc2)c1=O [Compound 2b] | 1.02 | – | PAMPA -log Pe [2]: 9.0
C[C@@]1(c2ccc(Cl)cc2Cl)OC[C@@H](COc2ccc(N3CCN(c4ccc(NC(=O)c5ccccc5)cc4)CC3)cc2)O1 [Compound 10, N-(4-(4-(4-(((2R,4R)-2-(2,4-dichlorophenyl)-2-methyl-1,3-dioxolan-4-yl)methoxy)phenyl)piperazin-1-yl)phenyl)benzamide] | – | > 10 | –
CCC(C)n1ncn(-c2ccc(N3CCN(c4ccc(OCC5COC(Cn6cncn6)(c6ccc(Cl)cc6Cl)O5)cc4)CC3)cc2)c1=O (stereo not shown) [ITZ, Itraconazole] | – | – | Efflux Pump Substrates, BCRP [3]: not a substrate; Efflux Pump Substrates, P-gp (P-glycoprotein (P-gp)): not a substrate; half-life (Metabolic stability): 27 ± 6.2 min
C[C@@]1(c2ccc(Cl)cc2Cl)OC[C@@H](COc2ccc(N3CCN(c4ccc(NC(=O)c5ccc6ccccc6c5)cc4)CC3)cc2)O1 [Compound 11, N-(4-(4-(4-(((2R,4R)-2-(2,4-dichlorophenyl)-2-methyl-1,3-dioxolan-4-yl)methoxy)phenyl)piperazin-1-yl)phenyl)-2-naphthamide] | – | > 10 | –
C[C@]1(c2ccc(Cl)cc2Cl)OC[C@@H](COc2ccc(N3CCN(c4ccc(NC(=O)c5ccccc5)cc4)CC3)cc2)O1 [Compound 15, N-(4-(4-(4-(((2S,4R)-2-(2,4-dichlorophenyl)-2-methyl-1,3-dioxolan-4-yl)methoxy)phenyl)piperazin-1-yl)phenyl)benzamide] | – | > 10 | –
C[C@]1(c2ccc(Cl)cc2Cl)OC[C@@H](COc2ccc(N3CCN(c4ccc(NC(=O)c5ccsc5)cc4)CC3)cc2)O1 [Compound 36, N-(4-(4-(4-(((2S,4R)-2-(2,4-dichlorophenyl)-2-methyl-1,3-dioxolan-4-yl)methoxy)phenyl)piperazin-1-yl)phenyl)thiophene-3-carboxamide] | – | – | Hh pathway inhibition, result in words [4]: inactive
CC[C@@H](C)n1ncn(-c2ccc(N3CCN(c4ccc(OC[C@@H]5CO[C@](C)(c6ccc(Cl)cc6Cl)O5)cc4)CC3)cc2)c1=O [Compound 2a] | > 20 | – | –
C[C@]1(c2ccc(Cl)cc2Cl)OC[C@@H](COc2ccc(N3CCN(c4ccc(NC(=O)c5ccncc5)cc4)CC3)cc2)O1 [Compound 19, N-(4-(4-(4-(((2S,4R)-2-(2,4-dichlorophenyl)-2-methyl-1,3-dioxolan-4-yl)methoxy)phenyl)piperazin-1-yl)phenyl)isonicotinamide] | – | > 10 | –
C[C@@]1(c2ccc(Cl)cc2Cl)OC[C@@H](COc2ccc(N3CCN(c4ccc(NC(=O)c5cccnc5)cc4)CC3)cc2)O1 [Compound 13, N-(4-(4-(4-(((2R,4R)-2-(2,4-dichlorophenyl)-2-methyl-1,3-dioxolan-4-yl)methoxy)phenyl)piperazin-1-yl)phenyl)nicotinamide] | > 30 | – | PAMPA -log Pe [2]: 7.9 ± 0.03
C[C@]1(c2ccc(Cl)cc2Cl)OC[C@@H](COc2ccc(N3CCN(c4ccc(NC(=O)c5ccoc5)cc4)CC3)cc2)O1 [Compound 35, N-(4-(4-(4-(((2S,4R)-2-(2,4-dichlorophenyl)-2-methyl-1,3-dioxolan-4-yl)methoxy)phenyl)piperazin-1-yl)phenyl)furan-3-carboxamide] | – | – | Hh pathway inhibition, result in words [4]: inactive
C[C@]1(c2ccc(Cl)cc2Cl)OC[C@@H](COc2ccc(N3CCN(c4ccc(NC(=O)c5cccnc5)cc4)CC3)cc2)O1 [Compound 18, N-(4-(4-(4-(((2S,4R)-2-(2,4-dichlorophenyl)-2-methyl-1,3-dioxolan-4-yl)methoxy)phenyl)piperazin-1-yl)phenyl)nicotinamide] | > 20 | – | –
